In the test the target is T1, Trypsin (Sus scrofa, UniProt P00761).
T1 construct: purchased Promega Corporation V511
Put plainly: Trypsin cleavage of N-terminal quantification tag Ac-nitroTyr-SGK- from peptides, LC-MS with UV detection at 350 nm. Format: biochemical. As to conditions: trypsin protocol of example 9, 24 h, RT. As to the method: Trypsin Activation: Trypsin (20 μg, sequencing grade modified trypsin, Promega Corporation, Madison, Wis., USA, catalogue no. V511, specific activity 16.965 u/mg) was dissolved in Trypsin resuspension buffer (200 μL, Promega, catalogue no. V542A, ingredient 50 mM acetic acid) and incubated for 15 min at 37° C.
Reduction and alkylation: The peptide (approx. 0.05 mg) was dissolved in 1 M urea and 100 mM fresh ammonium hydrogen carbonate (300 μL). TCEP (Tris(2-carboxyethyl) phosphine hydrochloride, 0.2 M, 7.5 μL, final concentration 5 mM) was added and the solution incubated at 37° C. for 1 h. After addition of iodoacetamide (0.5 M, 6.0 μL, final concentration 10 mM) the solution was incubated at RT in the dark for another 30 min. Digestion: The sample was digested with activated Trypsin solution (10 μL per well, 1.0 μg, resulting enzyme/substrate ratio 1:50) over night at RT. To stop the digestion, HCl (2 M, 8 μL final concentration 50 mM) and TFA (3.2 μL, final concentration 1%, pH<2) were added. Finally, the sample was analyzed by LC-MS at 350 nm.
38 peptides carrying the N-terminal quantification-tag Ac-nitroTyr-SGK-(SEQ ID NO:32) were synthesized by SPOT synthesis (Table 3). The peptide sequences are based on two different amino acid sequences, which in each case contain 19 different amino acids N-terminally attached to lysine (the 20 naturally occurring amino acids except cysteine).
All peptides were subjected to the same trypsin cleavage protocol as described in example 9. It is apparent that the quantification tag is efficiently cleaved (>99%) in nearly all cases.

Square brackets hold non-standard residues; d marks the D form. Peptide text beside a SMILES is read from it. Tyr(3-NO2) = N[C@@H](Cc1ccc(O)c([N+](=O)[O-])c1)C(=O)O

T1 sequence (P00761 9-231): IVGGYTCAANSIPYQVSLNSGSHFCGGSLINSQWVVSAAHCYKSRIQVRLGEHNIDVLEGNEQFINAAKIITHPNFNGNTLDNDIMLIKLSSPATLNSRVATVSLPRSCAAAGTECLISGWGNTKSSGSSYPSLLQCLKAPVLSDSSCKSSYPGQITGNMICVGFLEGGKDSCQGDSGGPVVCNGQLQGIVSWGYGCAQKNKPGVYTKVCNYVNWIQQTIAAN

Take `CC(=O)N[C@@H](Cc1ccc(O)c([N+](=O)[O-])c1)C(=O)N[C@@H](CO)C(=O)NCC(=O)N[C@@H](CCCCN)C(=O)NCC(=O)N[C@H](C(=O)N[C@@H](C)C(=O)N[C@@H](CC(C)C)C(=O)N[C@@H](CO)C(=O)N[C@@H](CC(C)C)C(=O)N[C@@H](CC(=O)O)C(=O)N[C@@H](CC(=O)O)C(=O)N[C@H](C(=O)N[C@@H](CCCCN)C(=O)O)C(C)C)C(C)C` [Peptide 26, Ac-nitroTyr-SGKGVALSLDDV-K-OH] (Ac-[Tyr(3-NO2)]SGKGVALSLDDVK-OH): the “Kusebauch 24 h, RT: Percent Cleavage of Tag [by UV350 - Peptide-Tag vs. Tag]” value (shortened to “Kusebauch 24 h, RT: Percent Cleavage”) is reported as 99.3%. The result for `CC(=O)N[C@@H](Cc1ccc(O)c([N+](=O)[O-])c1)C(=O)N[C@@H](CO)C(=O)NCC(=O)N[C@@H](CCCCN)C(=O)N[C@@H](CCCCN)C(=O)N[C@H](C(=O)N[C@@H](C)C(=O)N[C@@H](CC(C)C)C(=O)N[C@@H](CO)C(=O)N[C@@H](CC(C)C)C(=O)N[C@@H](CC(=O)O)C(=O)N[C@@H](CC(=O)O)C(=O)N[C@H](C(=O)N[C@@H](CCCCN)C(=O)O)C(C)C)C(C)C` [Peptide 29, Ac-nitroTyr-SGKKVALSLDDV-K-OH] (Ac-[Tyr(3-NO2)]SGKKVALSLDDVK-OH) reads 100.0%. The result for `CC(=O)N[C@@H](Cc1ccc(O)c([N+](=O)[O-])c1)C(=O)N[C@@H](CO)C(=O)NCC(=O)N[C@@H](CCCCN)C(=O)N[C@@H](CCC(=O)O)C(=O)N[C@H](C(=O)N[C@@H](C)C(=O)N[C@@H](CC(C)C)C(=O)N[C@@H](CO)C(=O)N[C@@H](CC(C)C)C(=O)N[C@@H](CC(=O)O)C(=O)N[C@@H](CC(=O)O)C(=O)N[C@H](C(=O)N[C@@H](CCCCN)C(=O)O)C(C)C)C(C)C` [Peptide 24, Ac-nitroTyr-SGKEVALSLDDV-K-OH] (Ac-[Tyr(3-NO2)]SGKEVALSLDDVK-OH) reads 100.0%; that for `CSCC[C@H](NC(=O)[C@H](CCCCN)NC(=O)CNC(=O)[C@H](CO)NC(=O)[C@H](Cc1ccc(O)c([N+](=O)[O-])c1)NC(C)=O)C(=O)N[C@H](C(=O)N[C@@H](C)C(=O)N[C@@H](CC(C)C)C(=O)N[C@@H](CO)C(=O)N[C@@H](CC(C)C)C(=O)N[C@@H](CC(=O)O)C(=O)N[C@@H](CC(=O)O)C(=O)N[C@H](C(=O)N[C@@H](CCCCN)C(=O)O)C(C)C)C(C)C` [Peptide 31, Ac-nitroTyr-SGKMVALSLDDV-K-OH] (Ac-[Tyr(3-NO2)]SGKMVALSLDDVK-OH), 100.0%; that for `CC(=O)N[C@@H](Cc1ccc(O)c([N+](=O)[O-])c1)C(=O)N[C@@H](CO)C(=O)NCC(=O)N[C@@H](CCCCN)C(=O)N[C@@H](CCC(N)=O)C(=O)N[C@H](C(=O)N[C@@H](C)C(=O)N[C@@H](CC(C)C)C(=O)N[C@@H](CO)C(=O)N[C@@H](CC(C)C)C(=O)N[C@@H](CC(=O)O)C(=O)N[C@@H](CC(=O)O)C(=O)N[C@H](C(=O)N[C@@H](CCCCN)C(=O)O)C(C)C)C(C)C` [Peptide 34, Ac-nitroTyr-SGKQVALSLDDV-K-OH] (Ac-[Tyr(3-NO2)]SGKQVALSLDDVK-OH), 100.0%. As for `CC(=O)N[C@@H](Cc1ccc(O)c([N+](=O)[O-])c1)C(=O)N[C@@H](CO)C(=O)NCC(=O)N[C@@H](CCCCN)C(=O)N[C@@H](CO)C(=O)N[C@H](C(=O)N[C@@H](C)C(=O)N[C@@H](CC(C)C)C(=O)N[C@@H](CO)C(=O)N[C@@H](CC(C)C)C(=O)N[C@@H](CC(=O)O)C(=O)N[C@@H](CC(=O)O)C(=O)N[C@H](C(=O)N[C@@H](CCCCN)C(=O)O)C(C)C)C(C)C` [Peptide 36, Ac-nitroTyr-SGKSVALSLDDV-K-OH] (Ac-[Tyr(3-NO2)]SGKSVALSLDDVK-OH), the “Kusebauch 24 h, RT: Percent Cleavage” value is 100.0%. Take `CC(=O)N[C@@H](Cc1ccc(O)c([N+](=O)[O-])c1)C(=O)N[C@@H](CO)C(=O)NCC(=O)N[C@@H](CCCCN)C(=O)N[C@@H](CC(C)C)C(=O)N[C@H](C(=O)N[C@@H](C)C(=O)N[C@@H](CC(C)C)C(=O)N[C@@H](CO)C(=O)N[C@@H](CC(C)C)C(=O)N[C@@H](CC(=O)O)C(=O)N[C@@H](CC(=O)O)C(=O)N[C@H](C(=O)N[C@@H](CCCCN)C(=O)O)C(C)C)C(C)C` [Peptide 30, Ac-nitroTyr-SGKLVALSLDDV-K-OH] (Ac-[Tyr(3-NO2)]SGKLVALSLDDVK-OH): the “Kusebauch 24 h, RT: Percent Cleavage” value was 100.0%. Under `CC(=O)N[C@@H](Cc1ccc(O)c([N+](=O)[O-])c1)C(=O)N[C@@H](CO)C(=O)NCC(=O)N[C@@H](CCCCN)C(=O)N[C@@H](CCCNC(=N)N)C(=O)N[C@H](C(=O)N[C@@H](C)C(=O)N[C@@H](CC(C)C)C(=O)N[C@@H](CO)C(=O)N[C@@H](CC(C)C)C(=O)N[C@@H](CC(=O)O)C(=O)N[C@@H](CC(=O)O)C(=O)N[C@H](C(=O)N[C@@H](CCCCN)C(=O)O)C(C)C)C(C)C` [Peptide 35, Ac-nitroTyr-SGKRVALSLDDV-K-OH] (Ac-[Tyr(3-NO2)]SGKRVALSLDDVK-OH) stands 100.0%. As for `CC(=O)N[C@@H](Cc1ccc(O)c([N+](=O)[O-])c1)C(=O)N[C@@H](CO)C(=O)NCC(=O)N[C@@H](CCCCN)C(=O)N[C@@H](Cc1ccccc1)C(=O)N[C@H](C(=O)N[C@@H](C)C(=O)N[C@@H](CC(C)C)C(=O)N[C@@H](CO)C(=O)N[C@@H](CC(C)C)C(=O)N[C@@H](CC(=O)O)C(=O)N[C@@H](CC(=O)O)C(=O)N[C@H](C(=O)N[C@@H](CCCCN)C(=O)O)C(C)C)C(C)C` [Peptide 25, Ac-nitroTyr-SGKFVALSLDDV-K-OH] (Ac-[Tyr(3-NO2)]SGKFVALSLDDVK-OH), the “Kusebauch 24 h, RT: Percent Cleavage” value is 100.0%. As for `CC(=O)N[C@@H](Cc1ccc(O)c([N+](=O)[O-])c1)C(=O)N[C@@H](CO)C(=O)NCC(=O)N[C@@H](CCCCN)C(=O)N[C@@H](Cc1ccc(O)cc1)C(=O)N[C@H](C(=O)N[C@@H](C)C(=O)N[C@@H](CC(C)C)C(=O)N[C@@H](CO)C(=O)N[C@@H](CC(C)C)C(=O)N[C@@H](CC(=O)O)C(=O)N[C@@H](CC(=O)O)C(=O)N[C@H](C(=O)N[C@@H](CCCCN)C(=O)O)C(C)C)C(C)C` [Peptide 40, Ac-nitroTyr-SGKYVALSLDDV-K-OH] (Ac-[Tyr(3-NO2)]SGKYVALSLDDVK-OH), the “Kusebauch 24 h, RT: Percent Cleavage” value stood at 99.1%. For `CC[C@H](C)[C@H](NC(=O)[C@H](CCCCN)NC(=O)CNC(=O)[C@H](CO)NC(=O)[C@H](Cc1ccc(O)c([N+](=O)[O-])c1)NC(C)=O)C(=O)N[C@H](C(=O)N[C@@H](C)C(=O)N[C@@H](CC(C)C)C(=O)N[C@@H](CO)C(=O)N[C@@H](CC(C)C)C(=O)N[C@@H](CC(=O)O)C(=O)N[C@@H](CC(=O)O)C(=O)N[C@H](C(=O)N[C@@H](CCCCN)C(=O)O)C(C)C)C(C)C` [Peptide 28, Ac-nitroTyr-SGKIVALSLDDV-K-OH] (Ac-[Tyr(3-NO2)]SGKIVALSLDDVK-OH), the “Kusebauch 24 h, RT: Percent Cleavage” value stood at 100.0%.

For the origin of these results see patent US20160223562A1, “Method for Determining the Concentration of a Peptide” (JPT Peptide Technologies GmbH, priority 2010, published 2016).
